Measurements: the METLIN SMRT retention time set (Domingo-Almenara et al. 2019)

Assay: gradient 5% acetonitrile 3 min, to 50% in 2 min, to 85% in 15 min, held 3 min, 100 µL/min
Details: column: Zorbax Extend-C18 2.1 x 50 mm; eluents: water / acetonitrile, 0.1% formic acid
Outline: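 Standards, all pure, were combined into mixtures of ~100 molecules and run at 100 μL/min on a Zorbax Extend-C18 column (2.1 × 50 mm, 1.8 μm) with water and acetonitrile, each containing 0.1% formic acid. A coupled quadrupole time-of-flight mass spectrometer operated in positive and negative ionization mode. Retention time values come from computationally picked adduct peaks, each inspected manually.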

RP-LC retention time | SMILES
956 s | COc1ccc(CNC(=O)c2ccc3c(=O)n(Cc4ccccc4)c(N4CCCC4)nc3c2)cc1
839 s | N#Cc1c(C(F)(F)F)cc(-c2ccccc2)nc1SCCC(N)=O
581 s | O=C(NCc1ccccn1)c1cn(-c2cc(N3CCOCC3)ncn2)cn1
1170 s | O=C(NOCC1CC1)c1cc(Br)c(F)c(F)c1Nc1ccc(I)cc1Cl
586 s | COc1ccc(NC(=O)c2cnc(N3CCN(CC(=O)N4CCCC4)CC3)nc2N)cc1
705 s | O=C(Cn1nc2n(c1=O)CCCC2)Nc1cccc(C(F)(F)F)c1
1040 s | CC(=O)Oc1ccccc1C1=NN(C(C)=O)C(c2cccc(Br)c2)O1 (centres undefined)
678 s | COc1ccc(N2CCN(C(=O)C3CC(=O)N(c4ccc5oc(C)nc5c4)C3)CC2)cc1 (centres undefined)
642 s | O=C(Cc1nnc2cc(-c3nc(C4CC4)no3)ccn12)N1CCOCC1
843 s | Cc1oc(-c2ccc(C(=O)N3CCCCC3)cc2)nc1CS(=O)(=O)c1ccccc1
844 s | COC(=O)C1=CN(c2ccc(OC)cc2)c2cc(F)ccc2S1(=O)=O
650 s | CCc1cc(C(=O)N2CCN(C(C)C)CC2)nc2cc(-c3ccccn3)nn12
627 s | CCCNC(=O)C1CCN(c2ccc(SCC(=O)N(C)c3ccccc3)nn2)CC1
946 s | O=S(=O)(c1cc(-c2nnc(C3CC3)o2)co1)N1CCc2ccccc2C1
604 s | O=C(NCCc1ccccc1)N(C1CCOCC1)C1CCN(Cc2cccnc2)CC1
745 s | COc1ccc2cc(C(=O)N3CC(n4cc(COCC5CC5)nn4)C3)[nH]c2c1
561 s | CCc1nnc2cc(N3CCN(C(=O)c4ccc(Cl)cc4)CC3)cnn12
693 s | Cc1cc2c(=O)n(CC(=O)Nc3ccc4c(c3)OCCO4)c3cccnc3n2n1
816 s | COc1ccc(-c2cn3c(CC(=O)N4CCN(c5ccc(Cl)cc5)CC4)csc3n2)cc1OC
825 s | CC(C)CNC(=O)c1ccc(-c2cccs2)nc1
659 s | O=C(NCCCN1CCc2ccccc2C1)c1noc2c1CCCC2
831 s | Cc1cccc(-c2csc3c(=O)n(Cc4cc(=O)n5ccccc5n4)cnc23)c1
978 s | CCOC(=O)c1[nH]c(C)c(C(=O)C(C)N(C(=O)c2ccc(Cl)cc2)C2CC2)c1C (centres undefined)

RP-LC retention time | SMILES
815 s | O=C1NC2(CCN(C(=O)c3c(F)cccc3F)CC2)N=C1c1cccc(F)c1
632 s | O=C(Cc1ccccc1F)N1CCc2[nH]cnc2C1c1ccccc1 (centres undefined)
1050 s | CCOc1ccc(N2C(=O)C3N=NN(Cc4nc(-c5ccc(Br)cc5)no4)C3C2=O)cc1 (centres undefined)
681 s | CN1CCN(S(=O)(=O)c2ccc(Cl)c(-c3nnc(-c4ccccc4)o3)c2)CC1
691 s | CC(C)C(=O)NCc1csc(C2CCCN(C(=O)C3CCCC3)C2)n1 (centres undefined)
1340 s | COc1ccc(Cn2nc3ccc(S(=O)(=O)N4CCC(C)CC4)cn3c2=O)cc1F
661 s | COc1ccc(CCNC(=O)Cc2csc3nc(-c4ccc(OC)c(OC)c4)cn23)cc1OC
597 s | COC(=O)C1=C(CN2CCN(C)CC2)NC(=O)NC1c1ccccc1Cl (centres undefined)
836 s | Cc1cc(C)cc(C(=O)N2CCCC(C(=O)NCCc3ccco3)C2)c1 (centres undefined)
893 s | Cc1nc(Cn2cccc2C(=O)Nc2ccc(Cl)cc2F)no1
690 s | O=C(Nc1ccc2c(c1)OCO2)C1CCN(c2cnc3nccnc3c2)CC1
949 s | CC(C)C(=O)Nc1ccc(C(=O)Nc2nc(-c3ccccc3)cs2)cc1
810 s | COCc1noc([C@@H]2CC(F)(F)CN2C(=O)C2CCCC2)n1
862 s | Cc1ccc(CCNC(=O)c2ccc3c(c2)NC(=O)C2CCCCN32)cc1 (centres undefined)
586 s | Cc1ccc(C)c(NC(=O)C2CC(=O)N(CCc3c[nH]c4ccc(F)cc34)C2)c1 (centres undefined)
1090 s | COc1ccc(-c2cc(C(=O)Nc3ccc(F)cc3)sn2)cc1
1370 s | CCOc1nc2ccccc2nc1N1CCCC(C(=O)Nc2cccc(C(F)(F)F)c2)C1 (centres undefined)
1030 s | Cc1nc2cc(-c3noc(Cc4ccccc4Cl)n3)ccc2o1
575 s | CCn1cc(CN2CCCCC2c2nncn2Cc2ccccc2)cn1 (centres undefined)
774 s | CCn1ncc(CN(C)C(=O)C2CN(C(=O)c3ccccc3)CC23CCCCC3)c1C (centres undefined)
1070 s | CCOc1ccc(Cc2nc(-c3ccc4c(c3)N(CC)C(=O)CO4)no2)cc1OCC
815 s | O=C(Nc1nnc(C(F)(F)F)s1)C1CCN(C(=O)c2ccc(F)cc2)CC1
1100 s | Cc1ccc(CNC(=O)C2CCCN(c3nc4c(s3)c(C)nn4-c3ccc(F)cc3)C2)o1 (centres undefined)

RP-LC retention time | SMILES
872 s | COc1ccccc1-c1nc2nccc(-c3ccsc3)n2n1
755 s | Cc1ccc(NC(=O)Cn2c(N3CCOCC3)nc(C)cc2=O)c(Cl)c1
938 s | CC(=O)NCc1ccc(-c2noc(-c3ccc(Br)cc3)n2)s1
645 s | COc1ccc(-c2cc(C(=O)O)c3ccccc3n2)cc1
748 s | CCc1noc(-c2ccc(-n3ncc(C(=O)N(C)C)c3C)nc2)n1
639 s | Cc1cc(N2CCN(C)CC2)nc2ccc(NC(=S)NC3CCCC(C)C3C)cc12 (centres undefined)
876 s | COc1ccc(OC)c(NC(=O)N2CCc3c(c(-c4nnc(-c5ccc(F)cc5)o4)nn3C)C2)c1
685 s | N#CCn1cccc1-c1nc(-c2ccncc2)no1
1000 s | CCCNc1cc(C)nc2nc(-c3ccc(C(C)(C)C)cc3)nn12
773 s | CCN1c2ccccc2C(=O)NC12CCN(C(=O)NCCc1ccccc1)CC2
923 s | Cc1cccc(CNC(=O)CCc2conc2-c2ccccc2)c1
787 s | O=C(NC1CCCC1)N1CCN(Cc2nc3cc(-c4ccccc4)ccc3o2)CC1
1010 s | Cc1ccc(Cn2c(=O)c(N3CCN(C(=O)NCc4ccco4)CC3)nc3ccccc32)cc1
702 s | Cc1nn(C(C)C(=O)NCCCN2CCCCCC2)c(=O)c2c1sc1ccccc12 (centres undefined)
580 s | CCOC(=O)c1nc(N2CCN(c3ccccn3)CC2)c2ccccc2n1
1130 s | CC(C)n1c(=O)oc2cc(-c3noc(-c4cc(F)ccc4F)n3)ccc21
579 s | CCN(CC)c1ccc(-c2noc(CN3CCC4(CC3)OCCO4)n2)cn1
698 s | COCCNC(=O)c1nc(Nc2ccc(C)cc2)c2ccccc2n1
917 s | CCn1cc(-c2nc(-c3ccc(OCC(C)C)cc3)no2)c(=O)c2cc(F)c(N3CCOCC3)cc21
953 s | Cc1ccc2nc(NC(=O)Cc3csc4nc(-c5ccc(C)c(C)c5)cn34)sc2c1
733 s | CN(C)c1ccc(C(=O)NC2CCN(c3cc(-c4ccc(F)cc4)[nH]n3)C2)cc1 (centres undefined)
924 s | CCOC(=O)c1cccc(NC(=O)c2cnc(-c3ccccc3)nc2-c2ccncc2)c1
611 s | CCCN1C(=O)CCc2c(C)ncnc21

RP-LC retention time | SMILES
919 s | CCN(C(=O)c1cc2c(=O)oc3ccccc3c2n1C)c1ccccc1
617 s | O=C(Cn1cccc1-c1nnc(-c2ccccc2)o1)NCc1cccnc1
660 s | O=C1CCCN1CCCN1C(=O)[C@H]2CN(Cc3cccc(Cl)c3F)C[C@H]2C1=O
804 s | CN(CC1CCOC1)S(=O)(=O)Cc1cccc(Cl)c1 (centres undefined)
827 s | Cc1ccc(S(=O)(=O)N2CCCC(Cn3cnc4cccnc43)C2)cc1C (centres undefined)
564 s | O=C1CCC(C(=O)N2CCCn3ccnc3C2C2CCCC2)=NN1 (centres undefined)
742 s | CCn1cnc2ccc(-c3noc(COc4ccccc4)n3)cc21
714 s | CC(C)(C)C(=O)N[C@H](Cc1ccccc1)C(=O)NCc1cscn1
714 s | CN(C)C(=O)c1csc(S(=O)(=O)N2CCC(C(=O)NCc3ccc4c(c3)OCO4)CC2)c1
1320 s | CCc1ccc(OCc2nc(C)c(C(=O)Nc3nc(-c4ccc(F)cc4)cs3)s2)cc1
590 s | CCCN(C)CC1(O)CCC2(CCN(C(=O)c3ccsc3)CC2)CC1
704 s | CNC(=O)CCc1nc2ccccc2n(CC(=O)NCCCc2ccccc2)c1=O
803 s | CCn1cc(C(=O)N2CCc3ccccc32)c2nn(-c3ccccc3)c(=O)c-2c1
787 s | Cc1cccc(C)c1NC(=O)Cn1nc2nc(N3CCCC(C)C3)ccn2c1=O (centres undefined)
578 s | Cc1ccccc1Cn1cnc2c(cnn2CCNC(=O)Cn2cnc3ccccc32)c1=O
559 s | O=C(CCc1ccc2nc(-c3ccccc3)[nH]c2c1)N1CCC(N2CCCCC2)CC1
749 s | Cc1ccsc1C(=O)N1CCN(c2cc(-c3ccc(Cl)cc3)[nH]n2)CC1
769 s | O=C(c1ccc(OCC2CCCN(C(=O)c3ccc(F)cc3)C2)cc1)N1CCOCC1 (centres undefined)
838 s | O=C(C1=CN(c2cccc(F)c2)c2cc(Cl)ccc2S1(=O)=O)N1CCCC1
957 s | Cc1ccc(N2CC(c3noc(-c4ccc5c(c4)OCO5)n3)CC2=O)cc1 (centres undefined)
